Experiment: physchem

`CCNC(=O)[C@@H]1CCCN1C(=O)[C@H](CCCNC(=N)N)NC(=O)[C@H](CC(C)C)NC(=O)[C@@H](Cc1c(C)[nH]c2ccccc12)NC(=O)[C@H](Cc1ccc(O)cc1)NC(=O)[C@H](CO)NC(=O)[C@H](Cc1c[nH]c2ccccc12)NC(=O)[C@H](Cc1c[nH]cn1)NC(=O)[C@@H]1CCC(=O)N1` [avoreline, 5-oxo-L-prolyl-L-histidil-L-tryptophil-L-seryl-L-tyrosil-2-methyl-D-tryptophil-L-leucyl-L-arginyl-N-ethyl-prolylamide] gave a pKa (pKa) of 9.7, a pKa (pKa (first value)) of 6.15 and a pKa (pKa (third printed value)) of 12.
